A value given as a limit tells only on which side of the number the result lay.

We go through six compounds from the supplement of paper PMC13380429.

What all share (details): 72 h
For assay [1], the system named is U2OS. Kind of assay: drug sensitivity score (DSS) for viability; higher = more toxic; extreme values may be limits of the assay.
The subject of assay [2] is Vero E6. Described as above.
Assay [3] deals with HepG2. The assay is described as above.
Assay [4] relates to U2OS. The assay is described as follows: relative viability EC50 (midpoint between 100% and the lowest measured viability); higher = less toxic.
Assay [5] has as its system Vero E6. The description is as above.
Assay [6] deals with HepG2. The assay is described as above.
For assay [7], the system named is U2OS. The assay is described as follows: cell viability relative to DMSO; higher = less toxic.
For assay [8], the system named is Vero E6. The description is as above.
The test system of assay [9] is HepG2. The assay is described as above.
Assay [10] concerns Calu-3. Kind of assay: drug sensitivity score (DSS) for viability; higher = more toxic; extreme values may be limits of the assay.
Assay [11] concerns Caco-2. The assay is described as above.
Assay [12] concerns Calu-3. The assay is described as follows: relative viability EC50 (midpoint between 100% and the lowest measured viability); higher = less toxic.
Assay [13] concerns Caco-2. The assay is described as above.
Assay [14] has as its system Calu-3. The assay is described as follows: cell viability relative to DMSO; higher = less toxic.
Assay [15] concerns Caco-2. The description is as above.

A word on the cell viability: it is a read-out of living cells in per cent, often relative to untreated cells. As to `CC(C)[C@@H](C)/C=C/[C@@H](C)[C@H]1CC[C@H]2C3=CC=C4C[C@@H](O)CC[C@]4(C)[C@H]3CC[C@]12C` [ergosterol], the drug sensitivity score in [1], in assay [2] and in assay [3] was 0 in each case. The “relative viability EC50” value in [4], in assay [5] and in assay [6] was over 10 µM in each case. Besides, the cell viability in assay [7] (1 nM) is 103%; in assay [7] (10 nM), 96.7%; in [7] (100 nM) it was 97.8%; in assay [7] (1000 nM), 94.7%; in assay [7] (10000 nM) it was 102%; in [8] (1 nM) it was 95.7%. For the same compound, the cell viability turned out to be 103% in [8] (10 nM); 94.7% in assay [8] (100 nM); 102% in assay [8] (1000 nM); 95.5% in [8] (10000 nM); 92% in assay [9] (1 nM); 102% in assay [9] (10 nM). For the same compound, the cell viability in assay [9] (100 nM) was found to be 96.5%; in assay [9] (1000 nM), 104%; in assay [9] (10000 nM), 95%.
For `O=C(O)CN(CCN(CC(=O)O)CC(=O)O)CC(=O)O` [ethylenediaminetetraacetic-acid], the drug sensitivity score in [1], in assay [2], in assay [10] and in assay [3] was 0 each time.
Consider `CCCCc1nc(C)c(CC(=S)N(C)C)c(=O)n1Cc1ccc(-c2ccccc2-c2nnn[nH]2)cc1` [fimasartan], for which the drug sensitivity score in assay [1], in assay [2], in assay [10] and in assay [11] was 0 throughout. Besides, the “relative viability EC50” value in assay [4], in assay [5], in [12] and in assay [13] was over 10 µM throughout. For the same compound, the cell viability in [7] (1 nM) was 107%; in assay [7] (10 nM) it was 96.6%; in [7] (100 nM), 102%; in assay [7] (1000 nM) it was 101%; in [7] (10000 nM) it was 104%; in [8] (1 nM), 98%. Also, the cell viability in assay [8] (10 nM) worked out at 95.8%; in assay [8] (100 nM), 93%; in assay [8] (1000 nM), 101%; in assay [8] (10000 nM), 106%; in assay [14] (1 nM), 94.9%; in [14] (10 nM), 99.5%. Further, the cell viability stood at 128% in assay [14] (100 nM); 94.4% in [14] (1000 nM); 115% in assay [14] (10000 nM); 94.2% in assay [15] (1 nM); 89.4% in [15] (10 nM); 90.8% in assay [15] (100 nM). Moreover, the cell viability in assay [15] (1000 nM) was 96.9%; in [15] (10000 nM), 113%.
Consider `OC[C@H]1O[C@@H](Oc2cc3c(O)cc(O)cc3[o+]c2-c2ccc(O)c(O)c2)[C@H](O)[C@@H](O)[C@@H]1O` [kuromanin], for which the drug sensitivity score in [1], in assay [2], in assay [10] and in assay [11] was 0 throughout. Moreover, the “relative viability EC50” value in assay [4], in [5], in assay [12] and in assay [13] was over 10 µM each time. The cell viability in assay [7] (1 nM) came out at 96.6%; in assay [7] (10 nM), 99.8%; in assay [7] (100 nM) it was 96.6%; in [7] (1000 nM), 99.5%; in assay [7] (10000 nM), 93.6%; in assay [8] (1 nM), 103%. Moreover, the cell viability in assay [8] (10 nM) is 102%; in assay [8] (100 nM) it was 103%; in assay [8] (1000 nM), 98%; in assay [8] (10000 nM) it was 94.4%; in assay [14] (1 nM) it was 98.7%; in assay [14] (10 nM) it was 111%. Besides, the cell viability in assay [14] (100 nM) came to 89.7%; in assay [14] (1000 nM), 102%; in [14] (10000 nM), 98.8%; in assay [15] (1 nM) it was 98.3%; in assay [15] (10 nM), 95.4%; in assay [15] (100 nM), 86.5%. The cell viability in [15] (1000 nM) was 100%; in assay [15] (10000 nM), 96.7%.
Compound `COc1ccccc1OCC(O)COC(N)=O` (configuration not stated) [methocarbamol] came in with a drug sensitivity score in assay [11] of 0. Further, the “relative viability EC50” value in assay [13] is over 10 µM. The cell viability was 102% in [15] (1 nM); 98.4% in [15] (10 nM); 98.3% in assay [15] (100 nM); 103% in [15] (1000 nM); 100% in assay [15] (10000 nM).
With `CC(C)[C@H]1CC[C@H](C(=O)N[C@H](Cc2ccccc2)C(=O)O)CC1` [nateglinide], the drug sensitivity score in [2] and in [11] was 0 in each case. Moreover, the “relative viability EC50” value in assay [5] and in [13] was over 10 µM throughout. Moreover, the cell viability is 99.7% in assay [8] (1 nM); 97% in assay [8] (10 nM); 92.9% in assay [8] (100 nM); 93.8% in assay [8] (1000 nM); 94.1% in assay [8] (10000 nM); 92.7% in assay [15] (1 nM). In addition, the cell viability was 95.6% in [15] (10 nM), 105% in [15] (100 nM), 106% in [15] (1000 nM) and 96.7% in assay [15] (10000 nM).
